ChEMBL document CHEMBL3813644, “Utilization of Structure-Based Design to Identify Novel, Irreversible Inhibitors of EGFR Harboring the T790M Mutation” (ACS Med Chem Lett, 2016)
≈ marks a conversion by molar mass, not a printed value. Calls of active or inactive are those of the source. The rule behind the calls is not given here.

Columns and labels:
[1] = molecular target: T1, Epidermal growth factor receptor (Homo sapiens, UniProt P00533, L858R/T790M); test: Inhibition of EGFR T790M/L858R double mutant autophosphorylation in human NCI-H1975 cells incubated for 2 hrs by ELISA; assay type: cell-based
[2] = molecular target: Epidermal growth factor receptor (Homo sapiens, UniProt P00533, EX19DEL); test: Inhibition of EGFR exon19 deletion activating mutant autophosphorylation in human PC9 cells incubated for 2 hrs by ELISA; assay type: cell-based, PC-9
[3] = molecular target: T2, Epidermal growth factor receptor (Homo sapiens, UniProt P00533); test: Inhibition of wild-type EGFR autophosphorylation in human LoVo cells incubated for 2 hrs followed by EGF-stiumlation for 10 mins by ELISA; assay type: cell-based
[4] = Solubility of compound at pH 7.4; assay type: physicochemical; conditions: buffer
[5] = Intrinsic clearance in human liver microsomes; assay type: ADME; conditions: read-out: CLH
[6] = Antitumor activity against human PC9 cells harboring EGFR exon19 deletion activating mutant xenografted in mouse at 50 mg/kg/day, po qd for 7 days; assay type: functional; conditions: PC-9, po, 168 h, read-out: TGI
NCI-H1975 [7] = test: Antitumor activity against human NCI-H1975 cells harboring EGFR T790M/L858R double mutant xenografted in mouse at 50 mg/kg/day, po qd for 7 days; assay type: functional; conditions: 168 h, read-out: TGI
[8] = molecular target: T3, Tyrosine-protein kinase JAK3 (Homo sapiens) (UniProt P52333); test: Inhibition of human JAK3 at 1 uM
T3 sequence (whole entry): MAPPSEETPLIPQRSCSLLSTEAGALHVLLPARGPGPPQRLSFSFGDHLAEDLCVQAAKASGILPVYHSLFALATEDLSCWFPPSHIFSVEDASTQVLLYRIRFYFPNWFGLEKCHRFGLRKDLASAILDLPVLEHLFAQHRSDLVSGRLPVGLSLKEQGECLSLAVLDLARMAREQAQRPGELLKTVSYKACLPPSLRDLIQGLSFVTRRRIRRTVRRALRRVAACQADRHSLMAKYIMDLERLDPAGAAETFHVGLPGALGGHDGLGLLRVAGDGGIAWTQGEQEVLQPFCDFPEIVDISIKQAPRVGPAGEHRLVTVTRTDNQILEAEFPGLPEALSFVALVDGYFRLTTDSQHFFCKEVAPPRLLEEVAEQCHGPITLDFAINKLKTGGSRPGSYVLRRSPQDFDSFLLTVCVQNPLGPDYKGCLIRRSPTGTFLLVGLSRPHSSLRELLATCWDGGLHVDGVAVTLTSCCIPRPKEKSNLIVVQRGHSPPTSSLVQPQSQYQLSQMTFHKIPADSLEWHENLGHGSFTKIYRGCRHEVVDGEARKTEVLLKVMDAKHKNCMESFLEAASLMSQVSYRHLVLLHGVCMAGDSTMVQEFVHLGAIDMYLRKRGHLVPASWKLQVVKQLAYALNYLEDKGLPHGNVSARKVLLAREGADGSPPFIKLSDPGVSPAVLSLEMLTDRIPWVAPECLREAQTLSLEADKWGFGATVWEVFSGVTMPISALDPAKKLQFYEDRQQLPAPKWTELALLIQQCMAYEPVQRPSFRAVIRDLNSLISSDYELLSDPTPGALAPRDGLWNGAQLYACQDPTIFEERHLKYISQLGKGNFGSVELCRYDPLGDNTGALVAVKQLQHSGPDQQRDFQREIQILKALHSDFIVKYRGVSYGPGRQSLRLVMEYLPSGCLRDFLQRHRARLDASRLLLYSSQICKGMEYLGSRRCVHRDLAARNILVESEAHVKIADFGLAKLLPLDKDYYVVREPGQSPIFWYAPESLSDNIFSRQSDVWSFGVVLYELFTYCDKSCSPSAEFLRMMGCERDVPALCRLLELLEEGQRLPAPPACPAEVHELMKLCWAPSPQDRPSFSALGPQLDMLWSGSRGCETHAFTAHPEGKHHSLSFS

[9] = Selectivity ratio of GI50 for human Calu6 cells to GI50 for human NCI-H1975 cells; assay type: ADME, cell-based; conditions: Calu6 cells and NCI-H1975 cells, read-out: RatioGI50
Mus musculus = test: T>EC50 in female nude mouse assessed as time duration during which plasma concentration covers cellular EC50 for EGFR T790M/L858R double mutant autophosphorylation in human NCI-H1975 cells at 50 mg/kg, po; assay type: ADME, organism-based; conditions: in vivo
[10] = Antiproliferative activity against human Calu6 cells incubated for 72 hrs by SYTOX green nucleic acid stain-based fluorescence analysis; assay type: cell-based, Calu-6
[11] = molecular target: T2, Epidermal growth factor receptor; test: Inhibition of wild-type human EGFR at 1 uM
NCI-H1975 [12] = test: Antiproliferative activity against human NCI-H1975 cells assessed as growth inhibition incubated for 72 hrs by SYTOX green nucleic acid stain-based fluorescence analysis; assay type: functional; conditions: NCI-H1975, 72 h
[13] = molecular target: T1, Epidermal growth factor receptor; test: Inhibition of recombinant N-terminal GST-tagged human EGFR T790M/L858R double mutant using biotinylated TK substrate incubated for 50 mins by HTRF assay; assay type: protein assay
A-431 = test: Antitumor activity against human A431 cells harboring wild-type EGFR xenografted in mouse at 50 mg/kg/day, po qd for 7 days; assay type: functional; conditions: A-431, po, 168 h, read-out: TGI
[14] = system: Epidermal growth factor receptor (Homo sapiens), P00533 [L858R,T790M]; test: Inhibition of human EGFR T790M/L858R double mutant at 1 uM; assay type: protein assay
[15] = Antiproliferative activity against human PC9 cells assessed as growth inhibition incubated for 72 hrs by SYTOX green nucleic acid stain-based fluorescence analysis; assay type: functional; conditions: PC-9, 72 h
[16] = Chemical stability of compound; assay type: physicochemical
[17] = system: Epidermal growth factor receptor (Homo sapiens), P00533 [T790M]; test: Reversible inhibition of EGFR T790M mutant (unknown origin)
Homo sapiens = organism: Homo sapiens; test: Selectivity ratio of IC50 for wild-type EGFR (unknown origin) to IC50 for recombinant N-terminal GST-tagged human EGFR T790M/L858R double mutant

T1 sequence (P00533 25-1210 T790M/L858R limits assumed): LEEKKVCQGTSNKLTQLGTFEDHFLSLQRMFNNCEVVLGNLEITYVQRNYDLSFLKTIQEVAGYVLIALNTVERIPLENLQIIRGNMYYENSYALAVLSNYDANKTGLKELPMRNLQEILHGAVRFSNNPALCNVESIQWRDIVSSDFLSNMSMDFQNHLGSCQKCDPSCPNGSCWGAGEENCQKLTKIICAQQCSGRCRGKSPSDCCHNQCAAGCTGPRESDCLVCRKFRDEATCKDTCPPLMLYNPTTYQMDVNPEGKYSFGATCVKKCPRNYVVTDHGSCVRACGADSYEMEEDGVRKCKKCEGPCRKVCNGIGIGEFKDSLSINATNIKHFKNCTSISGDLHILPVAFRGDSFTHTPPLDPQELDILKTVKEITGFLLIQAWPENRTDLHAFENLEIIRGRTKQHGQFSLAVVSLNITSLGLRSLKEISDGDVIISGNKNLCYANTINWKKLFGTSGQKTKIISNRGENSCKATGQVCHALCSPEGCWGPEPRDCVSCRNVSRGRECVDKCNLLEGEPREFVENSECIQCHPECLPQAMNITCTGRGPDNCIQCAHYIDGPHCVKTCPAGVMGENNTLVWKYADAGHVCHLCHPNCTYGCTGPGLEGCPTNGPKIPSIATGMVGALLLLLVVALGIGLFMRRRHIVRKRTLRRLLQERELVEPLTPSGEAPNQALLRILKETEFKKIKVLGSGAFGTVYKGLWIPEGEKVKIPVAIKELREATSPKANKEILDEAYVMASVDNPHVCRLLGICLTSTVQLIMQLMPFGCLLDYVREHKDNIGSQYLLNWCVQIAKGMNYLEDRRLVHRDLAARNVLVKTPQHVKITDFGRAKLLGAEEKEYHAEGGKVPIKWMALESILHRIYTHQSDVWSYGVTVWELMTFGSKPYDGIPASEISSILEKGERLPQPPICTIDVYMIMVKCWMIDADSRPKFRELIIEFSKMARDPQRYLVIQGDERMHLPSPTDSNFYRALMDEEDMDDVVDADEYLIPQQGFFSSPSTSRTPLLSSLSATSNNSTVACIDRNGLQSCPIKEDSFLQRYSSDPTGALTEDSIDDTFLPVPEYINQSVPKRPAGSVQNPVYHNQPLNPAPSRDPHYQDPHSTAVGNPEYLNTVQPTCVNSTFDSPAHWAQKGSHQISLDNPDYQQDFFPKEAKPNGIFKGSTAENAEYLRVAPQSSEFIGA
Epidermal growth factor receptor (Homo sapiens, UniProt P00533, EX19DEL), sequence (P00533 whole entry, looked up, stated change not applied): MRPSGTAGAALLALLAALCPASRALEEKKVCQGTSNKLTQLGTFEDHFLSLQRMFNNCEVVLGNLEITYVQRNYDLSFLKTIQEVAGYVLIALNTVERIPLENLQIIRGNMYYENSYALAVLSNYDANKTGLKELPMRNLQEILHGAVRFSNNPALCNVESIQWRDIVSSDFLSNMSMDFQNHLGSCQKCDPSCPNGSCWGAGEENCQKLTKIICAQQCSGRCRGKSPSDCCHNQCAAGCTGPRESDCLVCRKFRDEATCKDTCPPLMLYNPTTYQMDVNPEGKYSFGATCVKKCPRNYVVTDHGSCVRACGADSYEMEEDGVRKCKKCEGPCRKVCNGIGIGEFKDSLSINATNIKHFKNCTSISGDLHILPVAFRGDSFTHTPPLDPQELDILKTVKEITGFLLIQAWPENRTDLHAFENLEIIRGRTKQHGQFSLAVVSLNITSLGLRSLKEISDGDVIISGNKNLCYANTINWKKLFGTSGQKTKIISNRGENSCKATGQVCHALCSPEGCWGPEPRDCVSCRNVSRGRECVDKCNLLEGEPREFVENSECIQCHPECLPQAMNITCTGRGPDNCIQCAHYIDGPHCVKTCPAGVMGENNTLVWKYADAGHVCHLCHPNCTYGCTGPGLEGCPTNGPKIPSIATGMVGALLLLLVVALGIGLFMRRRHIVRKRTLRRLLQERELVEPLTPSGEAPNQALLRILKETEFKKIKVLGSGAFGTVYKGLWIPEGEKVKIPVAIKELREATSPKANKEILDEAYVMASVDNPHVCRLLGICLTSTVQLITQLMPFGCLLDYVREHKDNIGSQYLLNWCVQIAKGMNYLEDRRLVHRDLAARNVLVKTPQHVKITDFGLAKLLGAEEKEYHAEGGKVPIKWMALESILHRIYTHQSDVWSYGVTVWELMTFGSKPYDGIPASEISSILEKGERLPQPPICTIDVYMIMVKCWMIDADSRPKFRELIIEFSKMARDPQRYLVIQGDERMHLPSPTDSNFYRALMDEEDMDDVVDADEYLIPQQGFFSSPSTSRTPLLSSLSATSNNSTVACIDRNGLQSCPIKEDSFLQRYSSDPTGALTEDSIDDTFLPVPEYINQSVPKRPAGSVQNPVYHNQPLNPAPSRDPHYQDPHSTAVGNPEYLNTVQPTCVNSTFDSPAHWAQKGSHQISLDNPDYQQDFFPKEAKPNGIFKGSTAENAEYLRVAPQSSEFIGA
T2 sequence (P00533 whole entry): as the sequence (P00533 whole entry, looked up, stated change not applied) above
Epidermal growth factor receptor (Homo sapiens), P00533 [T790M], sequence (P00533 whole entry T790M): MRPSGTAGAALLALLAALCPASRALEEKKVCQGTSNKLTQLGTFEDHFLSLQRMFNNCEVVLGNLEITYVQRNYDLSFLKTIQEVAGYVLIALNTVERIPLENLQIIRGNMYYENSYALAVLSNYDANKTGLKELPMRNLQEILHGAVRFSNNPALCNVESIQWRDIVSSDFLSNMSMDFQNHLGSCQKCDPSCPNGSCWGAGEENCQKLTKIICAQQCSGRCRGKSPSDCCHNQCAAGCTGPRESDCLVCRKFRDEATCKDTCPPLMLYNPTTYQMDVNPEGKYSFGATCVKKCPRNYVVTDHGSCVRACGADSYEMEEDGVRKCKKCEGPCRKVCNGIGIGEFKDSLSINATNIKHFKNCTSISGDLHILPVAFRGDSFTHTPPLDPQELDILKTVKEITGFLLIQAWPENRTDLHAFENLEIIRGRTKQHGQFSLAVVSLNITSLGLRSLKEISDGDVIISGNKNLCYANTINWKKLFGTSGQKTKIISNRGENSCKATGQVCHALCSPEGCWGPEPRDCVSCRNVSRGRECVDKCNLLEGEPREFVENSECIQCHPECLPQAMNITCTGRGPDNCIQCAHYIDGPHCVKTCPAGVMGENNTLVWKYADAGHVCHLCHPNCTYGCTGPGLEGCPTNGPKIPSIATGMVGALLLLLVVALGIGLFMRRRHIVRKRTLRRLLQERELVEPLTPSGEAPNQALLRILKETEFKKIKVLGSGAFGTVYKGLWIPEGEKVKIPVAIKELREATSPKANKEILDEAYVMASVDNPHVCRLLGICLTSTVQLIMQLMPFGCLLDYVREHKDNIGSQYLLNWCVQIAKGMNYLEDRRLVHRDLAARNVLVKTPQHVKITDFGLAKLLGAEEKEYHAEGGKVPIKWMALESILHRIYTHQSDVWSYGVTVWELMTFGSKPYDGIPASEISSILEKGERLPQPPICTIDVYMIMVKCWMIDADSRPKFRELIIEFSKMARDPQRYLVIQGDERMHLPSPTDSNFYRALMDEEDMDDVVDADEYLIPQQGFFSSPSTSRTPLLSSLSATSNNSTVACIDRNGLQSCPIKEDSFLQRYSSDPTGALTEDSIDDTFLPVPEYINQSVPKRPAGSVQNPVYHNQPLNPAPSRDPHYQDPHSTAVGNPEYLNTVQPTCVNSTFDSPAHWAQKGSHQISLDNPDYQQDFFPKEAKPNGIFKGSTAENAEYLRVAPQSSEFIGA

SMILES	EC50 [1]	EC50 [2]	EC50 [3]	solubility [4]	microsomal CLint [5]	further results
C=CC(=O)N(C)c1cccc(-n2c(-c3nc(-c4cnn(C5CCN(C)CC5)c4)cnc3N)nc3ccccc32)c1	390 nM	250 nM	10900 nM	–	–	–
C=CC(=O)Nc1cccc(-n2c(-c3nc(-c4cnn(CCO)c4)cnc3N)nc3ccccc32)c1	12 nM	8 nM	2250 nM	< 10 µM	54 µL/min/mg	–
C=CC(=O)Nc1cccc(-n2c(-c3nc(-c4cnn(C5CCN(C)CC5)c4)cnc3N)nc3ccccc32)c1	14 nM	9 nM	980 nM	< 10 µM	120 µL/min/mg	inhibition in vivo at 50 mg/kg/day [6]: 238%; inhibition in vivo at 50 mg/kg/day (NCI-H1975 [7]): 117%; inhibition [8]: > 75%; selectivity ratio [9]: > 60; Time (Mus musculus): 6 h; GI50 at 72 h [10]: 1700 nM; inhibition [11]: > 75%; GI50 (NCI-H1975 [12]): 25 nM; IC50 [13]: < 1 nM; inhibition in vivo at 50 mg/kg/day (A-431): 21%; inhibition [14]: > 75%; GI50 [15]: 16 nM
C=CC(=O)NCCn1c(-c2nc(-c3cnn(C4CCN(C)CC4)c3)cnc2N)nc2ccccc21	14900 nM	–	–	–	–	IC50 [13]: 2200 nM
C=CC(=O)Nc1cccc(-n2c(-c3nc(-c4cnn(CCN5CCOCC5)c4)cnc3N)nc3ccccc32)c1	24 nM	22 nM	5000 nM	< 10 µM	298 µL/min/mg	–
C=CC(=O)Nc1cccc(-n2c(-c3nc(-c4cnn(C5CCN(C)CC5)c4)cnc3N)nc3ccncc32)c1	150 nM	100 nM	> 15000 nM	540 µM (≈ 281 µg/mL)	68 µL/min/mg	–
C=CC(=O)Nc1cccc(-n2c(-c3nc(-c4cnn(C5CCN(C(C)C)CC5)c4)cnc3N)nc3ccccc32)c1	14 nM	9 nM	760 nM	< 10 µM	37 µL/min/mg	–
C=CC(=O)Nc1cccc(Cn2c(-c3nc(-c4cnn(C5CCN(C)CC5)c4)cnc3N)nc3ccccc32)c1	360 nM	280 nM	> 25000 nM	–	–	–
C=CC(=O)Nc1ccccc1Cn1c(-c2nc(-c3cnn(C4CCN(C)CC4)c3)cnc2N)nc2ccccc21	7 nM	3 nM	420 nM	35 µM (≈ 18.7 µg/mL)	–	Stability [16]: Unstable
C=CC(=O)Nc1ccc(-n2c(-c3nc(-c4cnn(C5CCN(C)CC5)c4)cnc3N)nc3ccccc32)cc1	550 nM	120 nM	3380 nM	–	–	–
C=CC(=O)Nc1cccc(-n2c(-c3nc(-c4cnn(CCN5CCN(C)CC5)c4)cnc3N)nc3ccccc32)c1	15 nM	15 nM	2310 nM	30 µM (≈ 16.5 µg/mL)	60 µL/min/mg	–
C=CC(=O)Nc1cccc(-n2c(-c3nc(-c4cnn(C5CCN(C)CC5)c4)cnc3N)nc3ccccc32)c1F	23 nM	26 nM	2060 nM	< 10 µM	–	–
CN1CCC(n2cc(-c3cnc(N)c(-c4nc5ccccc5[nH]4)n3)cn2)CC1	–	–	–	–	–	IC50 [13]: 290 nM; inhibition [17]: Active; Ratio IC50 (Homo sapiens): 5
C=C(C)C(=O)Nc1cccc(-n2c(-c3nc(-c4cnn(C5CCN(C)CC5)c4)cnc3N)nc3ccccc32)c1	> 20000 nM	9130 nM	> 30000 nM	–	–	–
C=CC(=O)Nc1ccc(Cn2c(-c3nc(-c4cnn(C5CCN(C)CC5)c4)cnc3N)nc3ccccc32)cc1	1780 nM	5060 nM	> 30000 nM	–	–	–
C=CC(=O)Nc1cccc(-n2c(-c3nc(-c4cnn(C5CCN(CC)CC5)c4)cnc3N)nc3ccccc32)c1	9 nM	16 nM	1960 nM	< 10 µM	197 µL/min/mg	–
C=CC(=O)Nc1cccc(-n2c(-c3nc(-c4cnn(C)c4)cnc3N)nc3ccccc32)c1	10 nM	9 nM	1070 nM	< 10 µM	24 µL/min/mg	–
C=CC(=O)Nc1ccc(F)c(-n2c(-c3nc(-c4cnn(C5CCN(C)CC5)c4)cnc3N)nc3ccccc32)c1	73 nM	43 nM	4390 nM	< 10 µM	–	–
C=CC(=O)Nc1cccc(-n2c(-c3nc(-c4cnn(C5CCN(C)CC5)c4)cnc3N)nc3cnccc32)c1	18 nM	10 nM	4390 nM	300 µM (≈ 156 µg/mL)	169 µL/min/mg	–
C=CC(=O)NCCCn1c(-c2nc(-c3cnn(C4CCN(C)CC4)c3)cnc2N)nc2ccccc21	1710 nM	–	–	–	–	IC50 [13]: 200 nM
CC(=O)Nc1cccc(-n2c(-c3nc(-c4cnn(C5CCN(C)CC5)c4)cnc3N)nc3ccccc32)c1	> 30000 nM	8010 nM	> 30000 nM	–	–	–
C=CC(=O)Nc1cc(-n2c(-c3nc(-c4cnn(C5CCN(C)CC5)c4)cnc3N)nc3ccccc32)ccc1OC	1340 nM	370 nM	> 20000 nM	< 10 µM	–	–
C=CC(=O)Nc1cccc(-n2c(-c3nc(-c4cnn(C5CCN(C(C)=O)CC5)c4)cnc3N)nc3ccccc32)c1	22 nM	23 nM	3510 nM	< 10 µM	> 300 µL/min/mg	–
CCn1c(-c2nc(-c3cnn(C4CCN(C)CC4)c3)cnc2N)nc2ccccc21	–	–	–	–	–	IC50 [13]: 50 nM; inhibition [17]: Active; Ratio IC50 (Homo sapiens): 5
C=CC(=O)Nc1cccc(-n2c(-c3nc(-c4cnn(C5CCN(C(=O)CO)CC5)c4)cnc3N)nc3ccccc32)c1	24 nM	18 nM	3000 nM	< 10 µM	> 300 µL/min/mg	–
C=CC(=O)Nc1cccc(-n2c(-c3nc(-c4cnn(C5CCN(C(=O)CN(C)C)CC5)c4)cnc3N)nc3ccccc32)c1	15 nM	13 nM	1140 nM	18 µM (≈ 10.6 µg/mL)	66 µL/min/mg	–
